For data set [1] the following is noted: human gut metagenome, 24 h, 2 µM.
Data set [2] is described as follows: The drug is tested on WLS-039 corresponding to human gut metagenome with ENA study accession number: PRJEB37062 and ENA sample accession number: ERS12561746 for biotransformation under anaerobic condition. The drug concentrations were measured over 9 timepoints collected between 0 and 24 hours of incubation by liquid-chromatography-coupled mass spectrometry (LC–MS). Conditions: 2 µM.

A short description of data set [3]: The drug is tested on WLS-370 corresponding to human gut metagenome with ENA study accession number: PRJEB37062 and ENA sample accession number: ERS12561793 for biotransformation under anaerobic condition. The drug concentrations were measured over 9 timepoints collected between 0 and 24 hours of incubation by liquid-chromatography-coupled mass spectrometry (LC–MS). The settings on record: 2 µM.

Data set [4] can be described thus: The drug is tested on WLS-310 corresponding to human gut metagenome with ENA study accession number: PRJEB37062 and ENA sample accession number: ERS12561785 for biotransformation under anaerobic condition. The drug concentrations were measured over 9 timepoints collected between 0 and 24 hours of incubation by liquid-chromatography-coupled mass spectrometry (LC–MS). The settings on record: 2 µM.

For data set [5] the following is noted: human gut metagenome, 24 h, 2 µM. This is another data set of the same source.
The conditions of data set [6]: human gut metagenome, 24 h, 2 µM. This is another data set of the same source.
Data set [7] can be described thus: The drug is tested on Z-005 corresponding to metagenome with ENA study accession number: PRJEB37062 and ENA sample accession number: ERS12561805 for biotransformation under anaerobic condition. The drug concentrations were measured over 9 timepoints collected between 0 and 24 hours of incubation by liquid-chromatography-coupled mass spectrometry (LC–MS). The settings on record: 2 µM.

Data set [8] can be described thus: The drug is tested on WLS-010 corresponding to human gut metagenome with ENA study accession number: PRJEB37062 and ENA sample accession number: ERS12561743 for biotransformation under anaerobic condition. The drug concentrations were measured over 9 timepoints collected between 0 and 24 hours of incubation by liquid-chromatography-coupled mass spectrometry (LC–MS). The settings on record: 2 µM.

Data set [9] can be described thus: The drug is tested on Z-022 corresponding to mouse gut metagenome with ENA study accession number: PRJEB37062 and ENA sample accession number: ERS12561821 for biotransformation under anaerobic condition. The drug concentrations were measured over 9 timepoints collected between 0 and 24 hours of incubation by liquid-chromatography-coupled mass spectrometry (LC–MS). The settings on record: 2 µM.

The conditions of data set [10]: human gut metagenome, 24 h, 2 µM. The source holds these as a separate data set.
Data set [11] in a line: The drug is tested on WLS-038 corresponding to human gut metagenome with ENA study accession number: PRJEB37062 and ENA sample accession number: ERS12561745 for biotransformation under anaerobic condition. The drug concentrations were measured over 9 timepoints collected between 0 and 24 hours of incubation by liquid-chromatography-coupled mass spectrometry (LC–MS). Conditions: 2 µM.

For data set [12] the following is noted: human gut metagenome, 24 h, 2 µM. The source holds these as a separate data set.
A short description of data set [13]: The drug is tested on WLS-069 corresponding to human gut metagenome with ENA study accession number: PRJEB37062 and ENA sample accession number: ERS12561748 for biotransformation under anaerobic condition. The drug concentrations were measured over 9 timepoints collected between 0 and 24 hours of incubation by liquid-chromatography-coupled mass spectrometry (LC–MS). Conditions: 2 µM.

The conditions of data set [14]: human gut metagenome, 24 h, 2 µM. This is another data set of the same source.
The conditions of data set [15]: human gut metagenome, 24 h, 2 µM. The source holds these as a separate data set.
For data set [16] the following is noted: human gut metagenome, 24 h, 2 µM. This is another data set of the same source.
The conditions of data set [17]: human gut metagenome, 24 h, 2 µM. This is another data set of the same source.
The nature of data set [18]: The drug is tested on WLS-350 corresponding to human gut metagenome with ENA study accession number: PRJEB37062 and ENA sample accession number: ERS12561789 for biotransformation under anaerobic condition. The drug concentrations were measured over 9 timepoints collected between 0 and 24 hours of incubation by liquid-chromatography-coupled mass spectrometry (LC–MS). The settings on record: 2 µM.

The conditions of data set [19]: human gut metagenome, 24 h, 2 µM. The source holds these as a separate data set.
The conditions of data set [20]: human gut metagenome, 24 h, 2 µM. The source holds these as a separate data set.
Also: call rule not given here.

As to `OC(CCN1CCCCC1)(c1ccccc1)C1CCCCC1` (stereo not given) [TRIHEXYPHENIDYL], the “Bacterial Biotransformation” value is on record as “Compound metabolized” in data set [1]; “Compound metabolized” in data set [2]; “Compound metabolized” in data set [3]; “Compound metabolized” in data set [4]; “Compound metabolized” in data set [5]; “Compound NOT metabolized” in data set [6]. Moreover, the “Bacterial Biotransformation” value in data set [7] was “Compound metabolized”; in [8] it was “Compound NOT metabolized”; in [9], “Compound metabolized”; in [10] it was “Compound NOT metabolized”; in data set [11], “Compound NOT metabolized”; in data set [12] it was “Compound metabolized”. For the same compound, the “Bacterial Biotransformation” value in [13] was “Compound metabolized”; in data set [14] it was “Compound metabolized”; in [15], “Compound metabolized”; in data set [16] it was “Compound metabolized”; in [17], “Compound metabolized”; in data set [18] it was “Compound NOT metabolized”. The “Bacterial Biotransformation” value is given as “Compound NOT metabolized” in data set [19] and “Compound metabolized” in [20].
On to `Cc1ccc(/C(=C\CN2CCCC2)c2ccccn2)cc1` [TRIPROLIDINE], for which the “Bacterial Biotransformation” value in [1], in data set [2], in data set [3], in data set [4], in data set [5] and in data set [6] was “Compound NOT metabolized” in each case. Further, the “Bacterial Biotransformation” value in [7], in data set [8], in data set [9], in [10], in [11] and in data set [12] was “Compound NOT metabolized” throughout. Further, the “Bacterial Biotransformation” value was “Compound NOT metabolized” in [13]; “Compound NOT metabolized” in [14]; “Compound metabolized” in data set [15]; “Compound metabolized” in [16]; “Compound NOT metabolized” in [17]; “Compound NOT metabolized” in data set [18]. The figures for the “Bacterial Biotransformation” value in data set [19] and in data set [20] were “Compound NOT metabolized” and “Compound metabolized”, respectively.

The record behind these values is ChEMBL document CHEMBL5724914, “Linking interpersonal differences in gut microbiota composition and drug biotransformation activity” (2024).
